Experimental data: patent US9995734B2, “Human T cell line assay for evaluating the immunologic identity of glatiramer acetate preparations” (Mylan Inc., priority 2013, dated 2018)

Test system: Donor 4 COP T-Cell Lines
Assay: ATP proliferation assay (CellTiter Glo), Donor 4 COP T-cell lines, incl. reactivity to non-canonical GA peptides
Format: cell-based, human
Settings: for Mean, ATP proliferation assay: Cell Line 205-1F4, Day 58; for Mean RLU: T-Cell Line 205-1H11, Day 59, 4 days incubation

glatiramer acetate [COP]
Mean, ATP proliferation assay (30 μg/mL): 31323 | Mean, ATP proliferation assay (100 μg/mL): 31188 | Mean RLU (1 μg/mL COP): 12243 RLU | Mean RLU (10 μg/mL COP): 147464 RLU | Mean RLU (30 μg/mL COP): 112673 RLU | Reactivity (proliferation), Mean (T-cell line 205-1B4, 1 μg/mL antigen, No Antigen 830): 1522 RLU | Reactivity (proliferation), Mean (T-cell line 205-1B4, 3 μg/mL antigen, No Antigen 830): 5501 RLU | Reactivity (proliferation), Mean (T-cell line 205-1B4, 10 μg/mL antigen, No Antigen 830): 11273 RLU | COP 10 μg/mL, ATP proliferation assay (T-cell line 205-1B4, Day 13): 84937 RLU | COP 10 μg/mL, ATP proliferation assay (T-cell line 205-1B7, Day 13): 74147 RLU | Reactivity (proliferation), Mean (T-cell line 205-1C4, 1 μg/mL antigen, No Antigen 4464): 8859 RLU | Reactivity (proliferation), Mean (T-cell line 205-1C4, 3 μg/mL antigen, No Antigen 4464): 26612 RLU | Reactivity (proliferation), Mean (T-cell line 205-1C4, 10 μg/mL antigen, No Antigen 4464): 41287 RLU | COP 10 μg/mL, ATP proliferation assay (T-cell line 205-1C4, Day 13): 69861 RLU | COP 10 μg/mL, ATP proliferation assay (T-cell line 205-1D1, Day 13): 63419 RLU | COP 10 μg/mL, ATP proliferation assay (T-cell line 205-1E1, Day 13): 44198 RLU | COP 10 μg/mL, ATP proliferation assay (T-cell line 205-1F2, Day 13): 71947 RLU | COP 10 μg/mL, ATP proliferation assay (T-cell line 205-1F4, Day 13): 33143 RLU | Proliferation (luminescent ATP assay), Mean (T-cell line 205-1F4, Day 71, 1 μg/mL antigen, autologous B-LCL): 47254 | Proliferation (luminescent ATP assay), Mean (T-cell line 205-1F4, Day 71, 3 μg/mL antigen, autologous B-LCL): 169021 | Proliferation (luminescent ATP assay), Mean (T-cell line 205-1F4, Day 71, 10 μg/mL antigen, autologous B-LCL): 213196 | COP 10 μg/mL, ATP proliferation assay (T-cell line 205-1G3, Day 13): 54211 RLU | COP 10 μg/mL, ATP proliferation assay (T-cell line 205-1H1, Day 13): 29824 RLU | Reactivity (proliferation), Mean (T-cell line 205-1H3, 1 μg/mL antigen, 0 μg/mL 4121.0): 32122.0 | Reactivity (proliferation), Mean (T-cell line 205-1H3, 3 μg/mL antigen, 0 μg/mL 4121.0): 49585.0 | Reactivity (proliferation), Mean (T-cell line 205-1H3, 10 μg/mL antigen, 0 μg/mL 4121.0): 60878.3 | COP 10 μg/mL, ATP proliferation assay (T-cell line 205-1H3, Day 13): 55518 RLU | COP 10 μg/mL, ATP proliferation assay (T-cell line 205-1H4, Day 13): 50307 RLU | Reactivity (proliferation), Mean (T-cell line 205-1H5, 1 μg/mL antigen, No Antigen 749): 2375 RLU | Reactivity (proliferation), Mean (T-cell line 205-1H5, 3 μg/mL antigen, No Antigen 749): 7182 RLU | Reactivity (proliferation), Mean (T-cell line 205-1H5, 10 μg/mL antigen, No Antigen 749): 8580 RLU | COP 10 μg/mL, ATP proliferation assay (T-cell line 205-1H5, Day 13): 57608 RLU | Proliferation (luminescent ATP assay), Mean (T-cell line 205-1H7, 1μg/mL antigen, after seven stimulations, 0 μg/mL 3382): 13131 RLU | Proliferation (luminescent ATP assay), Mean (T-cell line 205-1H7, 10 μg/mL antigen, after seven stimulations, 0 μg/mL 3382): 175652 RLU | Proliferation (luminescent ATP assay), Mean (T-cell line 205-1H7, 30 μg/mL antigen, after seven stimulations, 0 μg/mL 3382): 190750 RLU | COP 10 μg/mL, ATP proliferation assay (T-cell line 205-1H7, Day 13): 64436 RLU | COP 10 μg/mL, ATP proliferation assay (T-cell line 205-1H9, Day 13): 52972 RLU | Reactivity (proliferation), Mean (T-cell line 205-1H11, 1 μg/mL antigen, 0 μg/mL 6941): 12243 RLU | Reactivity (proliferation), Mean (T-cell line 205-1H11, 10 μg/mL antigen, 0 μg/mL 6941): 147464 RLU | Reactivity (proliferation), Mean (T-cell line 205-1H11, 30 μg/mL antigen, 0 μg/mL 6941): 112673 RLU | COP 10 μg/mL, ATP proliferation assay (T-cell line 205-1H11, Day 13): 54232 RLU | ATP ratio (COP stimulated:unstimulated control) (fifteen Donor 4 wells, Day 13, 10 μg/mL (Table 26)): two or greater
